The results in this text go back to publication PMC12703428, “Development of Granzyme A Turn‐ON Fluorescent Activity‐Based Probes” (Chembiochem, 2025).

Assay [1] concerns the target T1, hGzmA (Homo sapiens, UniProt P12544).
T1 construct: active, mature form; purchased Enzo Life Sciences ALX-201-118-C010
T1 sequence (P12544 29-262): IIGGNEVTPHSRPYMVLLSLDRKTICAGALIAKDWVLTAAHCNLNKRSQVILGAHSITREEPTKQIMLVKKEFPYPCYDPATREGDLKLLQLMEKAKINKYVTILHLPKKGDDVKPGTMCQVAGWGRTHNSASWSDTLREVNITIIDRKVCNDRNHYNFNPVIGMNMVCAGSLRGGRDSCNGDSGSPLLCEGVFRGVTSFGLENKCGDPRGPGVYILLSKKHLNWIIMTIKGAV
As to the kind of experiment: Granzyme A cleavage assay (fluorogenic substrate). The assay is classed as biochemical. Conditions: hGzmA 50 nM, inhibitor 200 nM, substrate 100 μM, 50 mM Tris, 150 mM NaCl, 0.01% Triton X-100 pH 8, 15 h, 37 °C, Ex/Em 380/460 nm, mean ± SD n = 3. The method, then:
Figure 1 GzmA phosphonate and phosphinate inhibitors. A) Synthesis of phosphonate warhead I‐3. B) Synthesis of phosphosphinate warhead I‐4. C) Synthesis of Ac‐IGNR‐PO(OPh)2 1 and Ac‐IGNR‐PO(OPh)Ph 2. D) GzmA inhibition. hGzmA (50 nM) was incubated with inhibitor 1 or 2 (200 nM) and GzmA fluorogenic substrate (Ac‐Oic‐Gly‐Pro‐Arg‐PABA‐MU, 100 μM) for 15 h at 37 °C. Fluorescence at Ex/Em: 380/460 nm was recorded for residual GzmA proteolytic activity.
A. Granzyme A cleavage assay
Briefly, hGzmA (50 nM) was incubated with either inhibitor 1 or 2 (200 nM), and GzmA fluorogenic substrate […] (100 µM) in 50 mM Tris, 150 mM NaCl, 0.01% Triton X-100 (pH 8) for 15 hr at 37 °C. Recorded fluorescence at Ex/Em: 380/460 nm for residual GzmA […]
Cat. No. CRL-2570) and 4T1 (ATCC Cat. No. CRL-2539) cells were cultured in RPMI supplemented with 10% fetal bovine serum (FBS), 1% penicillin/streptomycin (PS), and 2 mM L-glutamine, while HEK293T and MDA-MB-231 cells (ATCC Cat. No. HTB-26) were cultured in DMEM supplemented likewise as described above. […] The supernatant was collected, and protein concentration was measured using a Pierce BCA protein assay. […]
C. In-gel fluorescence imaging […]
Conditions for probe/inhibitor treatment for in-gel fluorescence analysis: Inhibitors and probes were incubated with active (or pro-) GzmA followed by treatment with 4X SDS reducing sample buffer. […]

Assay [2] has as its target T2, recombinant human GzmA (hGzmA) (Homo sapiens, UniProt P12544).
T2 construct: active, mature form; purchased Enzo Life Sciences ALX-201-118-C010
T2 sequence (P12544 29-262): T1 sequence (P12544 29-262)
As to the kind of experiment: In-gel fluorescence labeling of recombinant active hGzmA. It counts as biochemical. As to conditions: hGzmA 100 nM preincubated with inhibitor 5 μM 2 h, then ABPs 3–5 50 nM 2 h, 37 °C. The method, then: Figure 3 GzmA ABPs covalently and competitively label active human and mouse GzmA. […] Recombinant hGzmA (100 nM) was incubated with varying concentrations of each ABP at 37 °C. B) Competitive labeling of hGzmA. Recombinant hGzmA (100 nM) was preincubated with covalent inhibitors 1 or 2 (5 μM) for 2 h, followed by labeling with ABPs 3 –5 (50 nM) for 2 h at 37 °C. Note: Pro‐form of hGzmA (the first lane) is not effectively stained by SYPRO‐Ruby. C) Structure of qABP 6. D) Quenched natures of 5 and 6. […] F) Labeling of mGzmA (1 μM) with 5 and 6 (1 μM, 24 h, 37 °C). Protein samples were analyzed by SDS‐PAGE and in‐gel fluorescence scanning for Cy5 signal and SYPRO Ruby staining. […]
C. In-gel fluorescence imaging
For recombinant enzyme labeling, working solutions of hGzmA (purchased from R&D Systems, Cat. No. 2905-SE-010 for pro-from and Enzo Life Sciences, Cat. No.: ALX-201-118-C010 for active, mature form) were prepared by diluting a 12.6 µM stock in the following assay buffer: 50 […]
mM Tris, 100 mM NaCl, 5 mM CaCl2, 0.01% (v/v) Tween-20, pH 7.5. […]
In-gel fluorescence and
SYPRO-Ruby staining images were acquired on a Typhoon FLA9500 instrument, while western blot images were acquired on an AMHERST ImageQuant 800 instrument.
Conditions for probe/inhibitor treatment for in-gel fluorescence analysis: Inhibitors and probes were incubated with active (or pro-) GzmA followed by treatment with 4X SDS reducing sample buffer. Samples were then heated to 100 °C for 5 min, brought to room temperature, and centrifuged. 20 µL of each sample was loaded onto a 15% polyacrylamide gel, which was then subjected to electrophoresis followed by the acquisition of in-gel fluorescence images. GzmA labeling was confirmed by western blotting, while protein loading was confirmed with SYPRO-Ruby staining. Incubation conditions for each figure/experiment are described below:
Conditions for Figure 3A: For labeling comparison between 3, 4, and 5, 100 nM of human GzmA was incubated with various concentrations of each probe for 2 h at 37 °C. For time-dependent labeling, 50 nM of 5 was incubated with 100 nM of human GzmA at 37 °C for the specified durations. Final reaction volume for both was 20 µL.
Conditions for Figure 3B: 100 nM of human GzmA was incubated with DMSO or 5 µM of 1 or 2 for 2 h at 37 °C in Eppendorf tubes. 0.5 µL of a 2 µM solution of 3, 4, or 5 in DMSO was then spiked into the Eppendorf tube, yielding a final probe concentration of 50 nM. The solution was incubated for another 2 h at 37 °C. Final reaction volume was 20 µL.
Conditions for Figure 3E: 100 nM of human GzmA was incubated with various concentrations of 5 or 6, respectively, for 2 h at 37 °C. Final reaction volume was 20 µL.
Conditions for Figure 3F: 1 µM of mouse GzmA was incubated with 1 µM of 5 or 6, respectively, for 24 h at 37 °C. Final reaction volume was 20 µL.
Conditions for Figure 4A: 1 mg/mL of lysates was incubated with various concentrations of 5 or 6, respectively, for 1 h at 37 °C.
Conditions for Figure 4C: Various concentrations of probes 3-6 were incubated with 1x10^6 NK-92 cells for 2 h at 37 °C in a humidified incubator. Cells were centrifuged, washed with PBS (x2) and lysed with ~40 µL of ice-cold RIPA buffer. Lysates were collected, protein concentration was measured with PIERCE BCA protein assay and samples were analyzed with in-gel fluorescence and GzmA western blotting. […]
All flow cytometry data were collected on BD LSRFortessa and FACSymphony A5 Cell Analyzers and analyzed with FlowJo software. Briefly, cells were processed according to the intended protocols for each experiment. Thereafter, cells were pelleted, fixed in the dark for 20 min at room temperature (Fixation buffer: BioLegend #420801), and pelleted again by centrifugation. Fixed cells were then resuspended in 1x intracellular staining perm wash buffer (BioLegend #421002), followed by centrifugation two times. Fixed/Permeabilized cells were then resuspended in […]

The structures appear in SMILES notation.

For the compound `CC[C@H](C)[C@H](NC(C)=O)C(=O)NCC(=O)N[C@@H](CC(N)=O)C(=O)NC(CCCNC(=N)N)P(=O)(Oc1ccccc1)c1ccccc1` (stereo partly shown) [compound 2, Ac‐IGNR‐PO(OPh)Ph], the “Inhibition of GzmA‐mediated cleavage of a fluorogenic substrate (residual GzmA proteolytic activity)” value in assay [1] is recorded as “comparable potency”. The “Blocking of ABP labeling of hGzmA by inhibitor pretreatment” value in assay [2] is given as “competitively blocked”.
Taken in the same sequence, the figures for `CC[C@H](C)[C@H](NC(C)=O)C(=O)NCC(=O)N[C@@H](CC(N)=O)C(=O)NC(CCCNC(=N)N)P(=O)(Oc1ccccc1)Oc1ccccc1` (stereo partly shown) [compound 1, Ac‐IGNR‐PO(OPh)2] were “comparable potency” and “competitively blocked”.
